Test results taken from patent publication US20230346884A1, “Molecular Targets for Modulation of Dissociative and Associative States” (The Board of Trustees of the Leland Stanford Junior …, priority 2020, published 2023).
Entries after “also recorded” stand apart in the source; their conditions may differ.

Assays:
[1] = tested on: mouse; conditions: cited from earlier work
[2] = tested on: mice; test: Open field test; type: in vivo, mouse; conditions: 5 min; vs saline; doses of b234
Text: Open Field Test: Mice were placed in an evenly illuminated 50 cm×50 cm open field test box. Mouse position was captured using a webcam and Viewer software (Biobserve).

[3] = tested on: mice; test: Tail suspension test; type: in vivo, mouse
Procedure: Tail Suspension Test: Mouse activity was recorded using a 60 Hz web camera. Struggling activity was quantified for minutes 2-10. […] Illumination began 30 seconds before tails were secured with tape and suspended from the beam. Mice were excluded if they climbed on their own tails.

[4] = tested on: retrosplenial cortex (RSP); test: Widefield (pan-cortical) imaging of cortical activity in GCaMP6s mice
Procedure: (§1) (2 mg/kg), lidocaine (topical), LSD ((+)-Lysergic acid diethylamide (+)-tartrate (2:1), 0.3 mg/kg), and diazepam (2 mg/kg). […] For anti-depressant effects, human doses are typically 0.3-1 mg/kg, and in mouse 3-10 mg/kg.
As described^8, mice were anesthetized with isoflurane, the scalp was removed, the skull cleaned and dried, and a custom head-plate was cemented to contacts over the cerebellum and in front of the olfactory bulb. The skull was then covered in a thin layer of cyanoacrylate glue (Apollo 2000, Cyberbond), clear dental acrylic (Ortho-Jet, Lang Dental), and clear nail polish (Electron Microscopy Services). […] (0.1 mg/kg) was injected subcutaneously for pain management. […] Imaging was performed on a custom-built fluorescence microscope designed for high light collection efficiency and large field of view. […] Alternating 410 nm and 488 nm illumination for non-Ca^2+ dependent artifact removal was controlled using a microcontroller (Arduino) slaved to the frame output trigger of the camera.

[5] = tested on: retrosplenial cortex (RSP); test: Fiber photometry in RSP (GCaMP6m); type: in vivo, mouse
Text: A 405 nm and 470 nm LED illumination (Thorlabs) was combined (425 nm longpass, Thorlabs DMLP425) and coupled into a fiber optic patch cord (400 μm diameter, 0.48 NA, Doric Lenses) using a longpass dichroic (505 nm, Thorlabs DMLP505) and a fixed-focused coupler/collimator with a standard FC connector (F240FC-A, NA 0.51, f =7.9 mm)^47,48. Each illumination channel was frequency modulated using the sync output from a lock-in amplifier (SR810 DSP, Stanford Research Systems). GCaMP fluorescence was collected through the same patchcord and delivered through a bandpass emission filter (Semrock, FF01-520/35) onto a NewFocus 2151 femtowatt silicon photoreceiver (Newport, DC Low mode). The signal from the photoreceiver was split into each lock-in amplifier, and the filtered outputs were digitized at 5 kHz using a NIDAQ (National Instruments PCIe-6353) and saved using a MATLAB (MathWorks) acquisition script.
Analysis was performed using custom MATLAB (MathWorks) scripts. Widefield imaging videos were registered to a 2D top-projection atlas generated from the annotated Allen Brain Atlas volume, version CCFv2, in MATLAB (MathWorks), using an affine transformation computed from four manually selected control points. Each video was DF/F normalized, using the median for each pixel over the entire time series as F. The 410 nm channel was then temporally smoothed using a moving average (width=400 ms). The smoothed 410 nm DF/F signal for each pixel was regressed onto the 488 nm DF/F signal for the corresponding pixel, and the regression coefficients were used to scale the 410 nm channel to the 488 nm channel. This scaled 410 nm DF/F signal was then subtracted from the 488 nm DF/F signal to produce a normalized signal for each pixel. For quantification, activity traces were extracted from points centered in five cortical regions (visual, somatosensory, parietal, motor, retrosplenial) on the left hemisphere of the brain. The video data was Gaussian smoothed spatially (radius=2 pixels). Similarly, for fiber photometry recordings, the 410 nm signal was regressed onto the 488 nm signal, the 410 nm signal was scaled by the regression coefficients, and then subtracted from the 488 nm signal.
Each trace (corresponding to either a fiber photometry signal, a cellular two-photon signal, a widefield regional centroid, a widefield pixel, an sEEG trace, or a smoothed spike rate Neuropixels trace) was z-scored, and the power spectral density (PSD) was then estimated using Welch's method (pwelch( ) in Matlab), with a window size of 10*fs (15*fs for human sEEG) where fs is the sampling rate of the signal. The average band power within a specified band (i.e. 1-3 Hz) was then computed by integrating the PSD estimate (bandpower in Matlab). For displaying the traces of individual cells, traces were each zscored by subtracting the mean value of the trace (across the whole recorded time window) and dividing by the standard deviation of the trace. Unless otherwise indicated, the PSD was computed across the time window from minutes 10 to 11 post-injection.
Stereotaxic Surgery: Adult male and female HCN1^f/f, NR1^f/f, or wildtype C57/B16 were injected bilaterally in two retrosplenial locations (AP −3.1 and −3.4, ML+/−0.5, DV −0.5) with 1 uL of AAV8-Ef1a-mCherry-IRES-Cre (titer 5E11) and AAVdj-Ef1a-DIO-GCaMP6m (titer 1E13). A 400-micron optical fiber was implanted over one injection location. At least four weeks were allowed for viral expression and gene disruption before photometry recording. For gene knockout behavior experiments, injections of AAVdj-Ef1a-Cre were made at (AP −2.7, −3.1 and −3.5, ML+/−0.5, DV −1.35 and −0.70). For gene knockout control behavioral experiments, two retrosplenial injections of AAVdj-Efla-Cre were made in experimental animals.

[6] = tested on: mouse; test: Ketamine dose-effect relationship in mouse
Procedure: as §1

## CNC1(c2ccccc2Cl)CCCCC1=O (stereo not shown) [ketamine]
[1]
  Doses for anti-depressant effects: 3 to 10 mg/kg
[2]
  Open-field locomotion velocity: decreased velocity
[3]; both channel-knockouts (HCN1, GRIN1), ketamine
  Tail suspension-escape behavior vs. wild-type: modestly-recovered tail suspension-escape behavior
[3]; ketamine >=25 mg/kg
  Tail-suspension escape responses: suppressed tail-suspension escape responses
[4]; Supplementary Note 2
  Time over which ketamine-induced oscillation decayed: ~15 min
  Time over which ketamine-induced oscillation emerged: 2 min
[4]; ketamine 50 mg/kg i.p.
  Ketamine-induced 1-3 Hz movements: no ketamine-induced 1-3 Hz movements were observed
  Time for rhythm to emerge: ≤ 120 s
  Time for rhythm to return to baseline: ~45 min
[4]; ketamine, five consecutive days
  Magnitude of rhythm on repeated days: exhibited similar magnitude across five consecutive days
[4]; subanesthetic ketamine
  RSP activity-correlations with other dorsal-cortical regions: reduced RSP activity-correlations with all other dorsal-cortical regions
[4]; to other layers or nearby cortical regions
  Spread of the ketamine-rhythm: did not spread beyond layer 5 neurons in retrosplenial cortex
[4]; widefield imaging, i.p., ketamine 50 mg/kg subanesthetic dose, other drugs at doses of b234
  Cortical activity pattern: 1-3 Hz oscillation localized to retrosplenial cortex (RSP): a 1-3 Hz oscillation emerged in retrosplenial cortex (RSP), but not in any other cortical region
[5]; 10 min after injection
  Glass's A, power 25 mg/kg vs 13 mg/kg (FIG. 3C): 3.2
[5]; GRIN1 knockout, ketamine
  Hedge's g effect-size, oscillation-power GRIN1-pre/GRIN1-post (FIG. 4E): 2.03
[5]; HCN1 knockout, ketamine
  Hedge's g effect-size, oscillation-power HCN1-pre/HCN1-post (FIG. 4E): 1.02
[5]; ketamine 25 mg/kg, widefield imaging and fiber photometry
  1-3 Hz RSP oscillation: revealed a 1-3 Hz oscillation at 25 mg/kg
[5]; local RSP GRIN1 (NMDAR) knockout mice, four weeks after virus
  Ketamine-induced oscillations: significantly diminished; also recorded: partially attenuated
[5]; local RSP HCN1 knockout mice, four weeks after virus
  Ketamine-induced oscillations: significantly diminished
[5]; wild-type mice
  Ketamine-induced oscillations: preserved in wild-type
[5]; wild-type, ketamine
  Hedge's g effect-size, oscillation-power WT-pre/WT-post (FIG. 4E): 3.22
[6]
  Lowest tested dose causing the oscillation and behavioral effects: 25 mg/kg
